Our source for the IC50 values is patent publication US20240317758A1 (Halia Therapeutics, Inc., priority 2021, published 2024).

The test system of one test is IL-1β release. Description: IL-1β release assay (THP-1 cells, PMA, LPS, nigericin). The class given is cell-based. The following applies: Homo sapiens, LPS 250 ng/mL, nigericin 20 μM, cleaved IL-1β in media. On the procedure:
Approximately 1.5 million THP-1 cells were plated in each well of a 6-well TC plate and incubated with 40 nM PMA in RPMI (10% FBS, 1% Penstrep) for 24 hours. The media was then removed and cells were rested in RPMI (10% FBS, 1% Penstrep) for 24 hours after which time the media was removed and cells were pre-treated for 2 hours with various concentrations of compounds of interest (typically serial 3-fold dilution in RPMI+5% FBS, concentrations ranging from 1 μM to 0.5 nM) in RPMI (5% FBS). The media was again removed and cells were incubated with 250 ng/mL LPS and compounds of interest (concentrations as above) in RMPI (5% FBS) for 2 hours. The media was removed for a last time and cells were incubated with 20 μM nigericin and compounds of interest (concentrations as above) in Opti-MEM for 30 minutes. Cell media was then collected and the amount of cleaved IL-1β was determined using a JESS instrument (Protein Simple) and standard protocols. Cleaved Il-1β antibody was obtained from Cell Signaling (catalogue #83186S) and was used at 1:20 dilution in antibody diluent 2. Protein Simple 1× anti-Rabbit HRP secondary antibody was used along with Protein Simple luminol and peroxide for chemiluminescent detection. Primary antibody incubation time was increased from 30 minutes to 60 minutes.

For test [1], the target named is T1, full-length recombinant human NEK7 (Homo sapiens, UniProt Q8TDX7).
T1 construct: full-length recombinant human NEK7; GST (N); purchased SignalChem NO9-10G; host or cells: Sf9 insect cells (baculovirus)
T1 sequence (Q8TDX7 whole entry): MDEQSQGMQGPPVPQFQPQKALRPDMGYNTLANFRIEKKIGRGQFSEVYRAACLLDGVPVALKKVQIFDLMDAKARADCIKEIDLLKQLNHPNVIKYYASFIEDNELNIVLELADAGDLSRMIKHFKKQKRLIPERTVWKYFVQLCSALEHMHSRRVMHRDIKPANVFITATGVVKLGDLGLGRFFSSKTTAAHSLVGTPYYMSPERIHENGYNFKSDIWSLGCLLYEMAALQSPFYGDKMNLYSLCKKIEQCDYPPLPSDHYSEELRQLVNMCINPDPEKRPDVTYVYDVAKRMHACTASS
Description: NEK7 enzymatic assay. Format: biochemical. The following applies: recombinant human NEK7, casein substrate, radiolabelled ATP. An outline of the steps:
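Full-length GST-tagged human NEK7 from Sf9 cells (assay concentration 70 nM) was used with casein (assay concentration 20 μM) in Hepes pH 7.5 buffer, 1% DMSO, and compound (3-fold dilutions, 10 μM to 0.5 nM) was preincubated 20 min at room temperature. Radiolabelled ATP was added for 2 h, phosphorylation was read on P81 paper, and IC50 was fitted from % activity remaining versus vehicle.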

For the compound `CC(c1ccc(NC(=O)Nc2ccc(-c3cn(C4CC4)c4ncnc(N)c34)cc2F)cc1C(F)(F)F)N1CCN(C)CC1` (stereo not shown) [Example I-6, 1-(4-(4-amino-7-cyclopropyl-7H-pyrrolo[2,3-d]pyrimidin-5-yl)-2-fluorophenyl)-3-(4-(1-(4-methylpiperazin-1-yl)ethyl)-3-(trifluoromethyl)phenyl)urea], the IC50 in the test with IL-1β release is above 1000 nM; in test [1] it was above 2000 nM.
`CN(C)C1CCN(Cc2ccc(NC(=O)Nc3ccc(-c4cn(C5CC5)c5ncnc(N)c45)cc3F)cc2C(F)(F)F)C1` (stereo not shown) [Example I-45, 1-(4-(4-amino-7-cyclopropyl-7H-pyrrolo[2,3-d]pyrimidin-5-yl)-2-fluorophenyl)-3-(4-((3-(dimethylamino)pyrrolidin-1-yl)methyl)-3-(trifluoromethyl)phenyl)urea]: the half-inhibitory concentration (IC50) is below 50 nM in the test with IL-1β release and below 100 nM in test [1].
Turning to `Nc1ncnc2c1c(-c1ccc(NC(=O)Nc3ccc(CN4CCNCC45CC5)c(C(F)(F)F)c3)c(F)c1)cn2C1CC1` [Example I-66, 1-(4-((4,7-diazaspiro[2.5]octan-4-yl)methyl)-3-(trifluoromethyl)phenyl)-3-(4-(4-amino-7-cyclopropyl-7H-pyrrolo[2,3-d]pyrimidin-5-yl)-2-fluorophenyl)urea], the IC50 is 250 to 1000 nM in the test on IL-1β release and below 100 nM in test [1].
Regarding `CN1CCN(C(=O)c2ccc(NC(=O)Nc3ccc(-c4cn(C5CC5)c5ncnc(N)c45)cc3F)cc2C(F)(F)F)CC1` [Example I-10], the IC50 with IL-1β release is 50 to 250 nM; in test [1], 100 to 500 nM.
Consider `CN1CCC(n2cc(-c3ccc(NC(=O)Nc4ccc(CN5CCN(C)CC5)c(C(F)(F)F)c4)c(F)c3)c3c(N)ncnc32)CC1` [Example I-21, 1-(4-(4-amino-7-(1-methylpiperidin-4-yl)-7H-pyrrolo[2,3-d]pyrimidin-5-yl)-2-fluorophenyl)-3-(4-((4-methylpiperazin-1-yl)methyl)-3-(trifluoromethyl)phenyl)urea], for which the IC50 was above 1000 nM with IL-1β release and below 100 nM in test [1].
Turning to `CN1CCN(Cc2ccc(NC(=O)Nc3ccc(-c4cn(C5CC5)c5ncnc(N)c45)cc3F)cc2C2CC2)CC1` [Example I-40, 1-(4-(4-amino-7-cyclopropyl-7H-pyrrolo[2,3-d]pyrimidin-5-yl)-2-fluorophenyl)-3-(3-cyclopropyl-4-((4-methylpiperazin-1-yl)methyl)phenyl)urea], the half-maximal inhibitory concentration (IC50) fell in the range of 250 to 1000 nM in the test with IL-1β release and 100 to 500 nM in test [1].
In the case of `CS(=O)(=O)CCN1CCN(Cc2ccc(NC(=O)Nc3ccc(-c4cn(C5CC5)c5ncnc(N)c45)cc3F)cc2C(F)(F)F)CC1` [Example I-99, 1-(4-(4-amino-7-cyclopropyl-7H-pyrrolo[2,3-d]pyrimidin-5-yl)-2-fluorophenyl)-3-(4-((4-(2-(methylsulfonyl)ethyl)piperazin-1-yl)methyl)-3-(trifluoromethyl)phenyl)urea], the IC50 in the test on IL-1β release is 50 to 250 nM; in test [1] it was below 100 nM.
As for `Nc1ncnc2c1c(-c1ccc(NC(=O)Nc3ccc(CN4CCN(CCS(=O)(=O)O)CC4)c(C(F)(F)F)c3)c(F)c1)cn2C1CC1` [Example I-100, 2-(4-(4-(3-(4-(4-amino-7-cyclopropyl-7H-pyrrolo[2,3-d]pyrimidin-5-yl)-2-fluorophenyl)ureido)-2-(trifluoromethyl)benzyl)piperazin-1-yl)ethane-1-sulfonic acid], the IC50 in the test on IL-1β release was above 1000 nM; in test [1], below 100 nM.
With `CN1CCN(Cc2ccc(NC(=O)Nc3ccc(-c4nn(C5CC5)c5ccnc(N)c45)cc3F)cc2C(F)(F)F)CC1` [Example I-31, 1-(4-(4-amino-1-cyclopropyl-1H-pyrazolo[4,3-c]pyridin-3-yl)-2-fluorophenyl)-3-(4-((4-methylpiperazin-1-yl)methyl)-3-(trifluoromethyl)phenyl)urea], the half-maximal inhibitory concentration (IC50) in the test with IL-1β release was below 50 nM; in test [1] it was below 100 nM.
Consider `CN1CCN(Cc2ccc(NC(=O)Nc3ccc(-c4cn(C5CC5)c5ncnc(N)c45)cc3F)c(C(F)(F)F)c2)CC1` [Example I-16, 1-(4-(4-amino-7-cyclopropyl-7H-pyrrolo[2,3-d]pyrimidin-5-yl)-2-fluorophenyl)-3-(4-((4-methylpiperazin-1-yl)methyl)-2-(trifluoromethyl)phenyl)urea], for which the IC50 with IL-1β release was above 1000 nM; in test [1] it was above 2000 nM.
Take `Nc1ncnc2c1c(-c1ccc(NC(=O)Nc3ccc(CN4CCN(CCF)CC4)c(C(F)(F)F)c3)c(F)c1)cn2C1CC1` [Example I-84, 1-(4-(4-amino-7-cyclopropyl-7H-pyrrolo[2,3-d]pyrimidin-5-yl)-2-fluorophenyl)-3-(4-((4-(2-fluoroethyl)piperazin-1-yl)methyl)-3-(trifluoromethyl)phenyl)urea]: the figures for the 50% inhibitory concentration (IC50) (in the test on IL-1β release; in test [1]) were below 50 nM and below 100 nM, respectively.
For the compound `Nc1ncnc2c1c(-c1ccc(NC(=O)Nc3ccc(OC4CCN(C5COC5)CC4)c(C(F)(F)F)c3)c(F)c1)cn2C1CC1` [Example I-83, 1-(4-(4-amino-7-cyclopropyl-7H-pyrrolo[2,3-d]pyrimidin-5-yl)-2-fluorophenyl)-3-(4-((1-(oxetan-3-yl)piperidin-4-yl)oxy)-3-(trifluoromethyl)phenyl)urea], the IC50 is 50 to 250 nM in the test on IL-1β release and 100 to 500 nM in test [1].
Turning to `CN1CCN(Cc2ccc(NC(=O)Nc3ccc(-c4cn(C)c5ncnc(N)c45)cc3F)cc2C(F)(F)F)CC1` [Example I-18, 1-(4-(4-amino-7-methyl-7H-pyrrolo[2,3-d]pyrimidin-5-yl)-2-fluorophenyl)-3-(4-((4-methylpiperazin-1-yl)methyl)-3-(trifluoromethyl)phenyl)urea], the half-inhibitory concentration (IC50) in the test on IL-1β release was below 50 nM; in test [1], below 100 nM.
On to `CN1CCN(Cc2ccc(NC(=O)Nc3ccc(-c4cn(CC(C)(C)O)c5ncnc(N)c45)cc3F)cc2C(F)(F)F)CC1` [Example I-15, 1-(4-(4-amino-7-(2-hydroxy-2-methylpropyl)-7H-pyrrolo[2,3-d]pyrimidin-5-yl)-2-fluorophenyl)-3-(4-((4-methylpiperazin-1-yl)methyl)-3-(trifluoromethyl)phenyl)urea], for which the values for the concentration for half-maximal inhibition (IC50) (in the test on IL-1β release; in test [1]) were below 50 nM and below 100 nM, respectively.
Turning to `Nc1ncnc2c1c(-c1ccc(NC(=O)Nc3ccc(CN4CCN(CCO)CC4)c(C(F)(F)F)c3)c(F)c1)cn2C1CC1` [Example I-42, 1-(4-(4-amino-7-cyclopropyl-7H-pyrrolo[2,3-d]pyrimidin-5-yl)-2-fluorophenyl)-3-(4-((4-(2-hydroxyethyl)piperazin-1-yl)methyl)-3-(trifluoromethyl)phenyl)urea], the 50% inhibitory concentration (IC50) with IL-1β release was below 50 nM; in test [1], below 100 nM.
Turning to `Nc1ncnc2c1c(-c1ccc(NC(=O)Nc3ccc(CN4CCC(N)CC4)c(C(F)(F)F)c3)c(F)c1)cn2C1CC1` [Example I-75, 1-(4-(4-amino-7-cyclopropyl-7H-pyrrolo[2,3-d]pyrimidin-5-yl)-2-fluorophenyl)-3-(4-((4-aminopiperidin-1-yl)methyl)-3-(trifluoromethyl)phenyl)urea], the IC50 in the test on IL-1β release is above 1000 nM; in test [1], 100 to 500 nM.
Turning to `COCCn1nc(-c2ccc(NC(=O)Nc3ccc(CN4CCN(C)CC4)c(C(F)(F)F)c3)c(F)c2)c2c(N)ncnc21` [Example I-77, 1-(4-(4-amino-1-(2-methoxyethyl)-1H-pyrazolo[3,4-d]pyrimidin-3-yl)-2-fluorophenyl)-3-(4-((4-methylpiperazin-1-yl)methyl)-3-(trifluoromethyl)phenyl)urea], the IC50 is below 50 nM with IL-1β release and below 100 nM in test [1].
On to `CC(C)N1CCN(Cc2ccc(NC(=O)Nc3ccc(-c4cn(C5CC5)c5ncnc(N)c45)cc3F)cc2C(F)(F)F)CC1` [Example I-63, 1-(4-(4-amino-7-cyclopropyl-7H-pyrrolo[2,3-d]pyrimidin-5-yl)-2-fluorophenyl)-3-(4-((4-isopropylpiperazin-1-yl)methyl)-3-(trifluoromethyl)phenyl)urea], for which the IC50 with IL-1β release is below 50 nM; in test [1], below 100 nM.
The matching figures for `CN1CCN(Cc2ccc(NC(=O)Nc3ccc(-c4cn(C5CCN(S(C)(=O)=O)CC5)c5ncnc(N)c45)cc3F)cc2C(F)(F)F)CC1` [Example I-101, 1-(4-(4-amino-7-(1-(methylsulfonyl)piperidin-4-yl)-7H-pyrrolo[2,3-d]pyrimidin-5-yl)-2-fluorophenyl)-3-(4-((4-methylpiperazin-1-yl)methyl)-3-(trifluoromethyl)phenyl)urea]: 50 to 250 nM and below 100 nM.
Regarding `CN1CCN(Cc2cc(NC(=O)Nc3ccc(-c4nn(C5CC5)c5ncnc(N)c45)cc3F)cc(C(F)(F)F)c2)CC1` [Example I-87, 1-(4-(4-amino-1-cyclopropyl-1H-pyrazolo[3,4-d]pyrimidin-3-yl)-2-fluorophenyl)-3-(3-((4-methylpiperazin-1-yl)methyl)-5-(trifluoromethyl)phenyl)urea], the results for the 50% inhibitory concentration (IC50) (in the test on IL-1β release; in test [1]) were above 1000 nM and below 100 nM, respectively.

In general, IC50 refers to the concentration at which inhibition is half-maximal.
